Test [1] has as its target PHD1 (EGLN2) (Homo sapiens (Human), UniProt Q96KS0). Kind of test: HIF-PH assay (14CO2 capture), PHD1 enzyme inhibition. Type of test: biochemical. The settings on record: Table 1; for PHD2/PHD1: ratio of the IC50 of the compound for each enzyme.
Test [2] deals with PHD2 (EGLN1) (Homo sapiens (Human), UniProt Q9GZT9). Put plainly: HIF-PH assay (14CO2 capture), PHD2 enzyme inhibition. The class given is biochemical. The settings on record: Table 1.
[3] abbreviates: individual measurement, read-out: IC50 (μM) PHD1.
Setting [4] is: individual measurement, read-out: IC50 (μM) PHD2.

Several values for one entry are separate records, joined by “and”; a condition that tells them apart may be missing. Equal entries are not always repeated. Where two headings read alike, the source gives them in different places.

Usually IC50 stands for the concentration that inhibits the measured activity by half.

Sequence of PHD2 (EGLN1) (Q9GZT9 whole entry): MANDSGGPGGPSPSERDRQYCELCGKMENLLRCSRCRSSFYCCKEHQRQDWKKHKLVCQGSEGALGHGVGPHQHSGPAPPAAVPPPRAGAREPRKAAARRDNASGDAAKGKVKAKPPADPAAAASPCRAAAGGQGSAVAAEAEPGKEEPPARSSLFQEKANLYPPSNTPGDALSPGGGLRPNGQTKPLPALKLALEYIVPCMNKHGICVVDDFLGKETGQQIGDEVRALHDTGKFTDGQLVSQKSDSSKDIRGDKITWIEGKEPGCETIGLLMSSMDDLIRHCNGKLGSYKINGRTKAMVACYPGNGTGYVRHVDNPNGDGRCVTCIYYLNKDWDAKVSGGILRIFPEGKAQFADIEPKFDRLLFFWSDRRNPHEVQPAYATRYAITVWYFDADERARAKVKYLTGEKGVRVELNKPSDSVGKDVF
Sequence of PHD1 (EGLN2) (Q96KS0 whole entry): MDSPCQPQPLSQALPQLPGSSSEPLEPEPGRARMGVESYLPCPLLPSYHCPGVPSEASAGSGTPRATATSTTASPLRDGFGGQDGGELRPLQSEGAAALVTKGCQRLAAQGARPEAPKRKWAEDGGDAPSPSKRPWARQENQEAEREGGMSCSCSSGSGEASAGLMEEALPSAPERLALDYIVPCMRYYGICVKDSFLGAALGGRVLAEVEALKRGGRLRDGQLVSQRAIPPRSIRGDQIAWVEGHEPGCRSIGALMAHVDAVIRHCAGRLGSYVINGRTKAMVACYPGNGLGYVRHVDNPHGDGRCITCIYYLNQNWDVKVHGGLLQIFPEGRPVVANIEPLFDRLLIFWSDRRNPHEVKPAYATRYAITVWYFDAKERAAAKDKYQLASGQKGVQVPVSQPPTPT

On to `N#Cc1nc(C(=O)NCCC(=O)O)c(O)c2ccc(Oc3ccc(F)cc3Cl)cc12` [Compound 97, 3-{[7-(2-Chloro-4-fluoro-phenoxy)-1-cyano-4-hydroxy-isoquinoline-3-carbonyl]-amino}-propionic acid], for which the IC50 in test [1] (setting [3]) was found to be 1.3 µM; in test [2] (setting [4]), 7.43 µM. For the same molecule, in test [1], the PHD2/PHD1 is reported as 6.

`N#Cc1nc(C(=O)NCCCCC(=O)O)c(O)c2ccc(Oc3ccc(F)cc3Cl)cc12` [Compound 98, 5-{[7-(2-Chloro-4-fluoro-phenoxy)-1-cyano-4-hydroxy-isoquinoline-3-carbonyl]-amino}-pentanoic acid]: the IC50 in test [1] (setting [3]) amounted to 0.27 µM; in test [2] (setting [4]), 3.73 µM. In addition, the PHD2/PHD1 in test [1] was determined as 14.

With `CC(C)(CNC(=O)c1nc(C#N)c2cc(Oc3ccc(F)cc3Cl)ccc2c1O)C(=O)O` [Compound 99, 3-{[7-(2-Chloro-4-fluoro-phenoxy)-1-cyano-4-hydroxy-isoquinoline-3-carbonyl]-amino}-2,2-dimethyl-propionic acid], the IC50 in test [1] (setting [3]) was 0.29 µM; in test [2] (setting [4]), 5.55 µM. Also, in test [1], the PHD2/PHD1 was found to be 19.

On to `O=C(O)CCCCNC(=O)c1ncc2cc(Oc3c(F)cccc3F)ccc2c1O` [Compound 100, 5-{[7-(2,6-Difluoro-phenoxy)-4-hydroxy-isoquinoline-3-carbonyl]-amino}-pentanoic acid], for which the IC50 in test [1] (setting [3]) was determined as 23.1 µM; in test [2] (setting [4]), 200 µM. For the same molecule, the PHD2/PHD1 in test [1] is recorded as 9.

`CC(C)(CNC(=O)c1nc(C#N)c2cc(Oc3ccc(F)cc3)ccc2c1O)C(=O)O` [Compound 101, 3{-[1-Cyano-7-(4-fluoro-phenoxy)-4-hydroxy-isoquinoline-3-carbonyl]-amino}-2,2-dimethyl-propionic acid]: the values for the IC50 in test [1] (setting [3]) and in test [2] (setting [4]) were 0.41 µM and 4.65 µM, respectively. The PHD2/PHD1 in test [1] was 11.

In the case of `CC(C)(CC(=O)O)NC(=O)c1nc(C#N)c2cc(Oc3ccc(F)cc3)ccc2c1O` [Compound 102, 3{-[1-Cyano-7-(4-fluoro-phenoxy)-4-hydroxy-isoquinoline-3-carbonyl]-amino}-3-methyl-butyric acid], the figures for the IC50 in test [1] (setting [3]) and in test [2] (setting [4]) were 0.53 µM and 8.5 µM, respectively. For the same molecule, the PHD2/PHD1 in test [1] is on record as 16.

For `COc1ccc(Oc2ccc3c(O)c(C(=O)NC[C@H](O)C(=O)O)ncc3c2)cc1` [Compound 103, 2-(S)-Hydroxy-3-{[4-hydroxy-7-(4-methoxy-phenoxy)-isoquinoline-3-carbonyl]-amino}-propionic acid], the IC50 in test [1] (setting [3]) was 0.79 µM; in test [2] (setting [4]), 4.78 µM. Moreover, the PHD2/PHD1 in test [1] is recorded as 6.

As to `COc1ccc(Oc2ccc3c(O)c(C(=O)NCC(C)(C)C(=O)O)ncc3c2)cc1` [Compound 104, 3-{[4-Hydroxy-7-(4-methoxy-phenoxy)-isoquinoline-3-carbonyl]-amino}-2,2-dimethyl-propionic acid], the values for the IC50 in test [1] (setting [3]) and in test [2] (setting [4]) were 3.3 µM and 19.5 µM, respectively. The PHD2/PHD1 in test [1] was determined as 6.

Turning to `COc1ccc(Oc2ccc3c(O)c(C(=O)NCCCCC(=O)O)ncc3c2)cc1` [Compound 105, 5-{[4-Hydroxy-7-(4-methoxy-phenoxy)-isoquinoline-3-carbonyl]-amino}-pentanoic acid], the IC50 in test [1] (setting [3]) stood at 2.3 µM; in test [2] (setting [4]), 13.4 µM. Moreover, the PHD2/PHD1 in test [1] was 6.

Take `N#Cc1nc(C(=O)NC2(CC(=O)O)CCC2)c(O)c2ccc(Oc3ccccc3)cc12` [Compound 106, {1-[(1-Cyano-4-hydroxy-7-phenoxy-isoquinoline-3-carbonyl)-amino]-cyclobutyl}-acetic acid]: the values for the IC50 in test [1] (setting [3]) and in test [2] (setting [4]) were 7.79 µM and 74.5 µM, respectively. In test [1], the PHD2/PHD1 was determined as 10.

For the molecule `N#Cc1nc(C(=O)N[C@H](CCc2ccccc2)CC(=O)O)c(O)c2ccc(Oc3ccccc3)cc12` [Compound 107, 3-(R)-[(1-Cyano-4-hydroxy-7-phenoxy-isoquinoline-3-carbonyl)-amino]-5-phenyl-pentanoic acid], the IC50 in test [1] (average of multiple independent measurements, read-out: IC50 (μM) PHD1 avg.) was 2.37 µM; in test [1] (setting [3]), 2.46 µM and 2.28 µM; in test [2] (average of multiple independent measurements, read-out: IC50 (μM) PHD2 avg.), 11.8 µM; in test [2] (setting [4]) it was 9.28 µM and 14.4 µM. Besides, the PHD2/PHD1 avg. in test [1] (average of the ratios of multiple independent measurements) was 5 avg. Also, the PHD2/PHD1 in test [1] was 4 and 6.

Consider `Cc1nc(C(=O)NCCC(=O)O)c(O)c2ccc(Oc3ccccc3)cc12` [Compound 108, 3-[(4-Hydroxy-1-methyl-7-phenoxy-isoquinoline-3-carbonyl)-amino]-propionic acid], for which the results for the IC50 in test [1] (setting [3]) and in test [2] (setting [4]) were 29 µM and 200 µM, respectively. Further, the PHD2/PHD1 in test [1] is reported as 7.

On to `Cc1cccc(C)c1Oc1ccc2c(C#N)nc(C(=O)NCCC(=O)O)c(O)c2c1` [Compound 109, 3{-[1-Cyano-6-(2,6-dimethyl-phenoxy)-4-hydroxy-isoquinoline-3-carbonyl]-amino}-propionic acid], for which the IC50 in test [1] (setting [3]) came to 6.4 µM; in test [2] (setting [4]), 30.4 µM. Besides, the PHD2/PHD1 in test [1] was 5.

On to `Cc1cccc(C)c1Oc1ccc2c(C#N)nc(C(=O)NCCCC(=O)O)c(O)c2c1` [Compound 110, 4-{[1-Cyano-6-(2,6-dimethyl-phenoxy)-4-hydroxy-isoquinoline-3-carbonyl]-amino}-butyric acid], for which the IC50 in test [1] (setting [3]) is 3.63 µM; in test [2] (setting [4]) it was 21.3 µM. Also, in test [1], the PHD2/PHD1 was 6.

For the molecule `Cc1cccc(C)c1Oc1ccc2c(C#N)nc(C(=O)NCCCCC(=O)O)c(O)c2c1` [Compound 111, 5-{[1-Cyano-6-(2,6-dimethyl-phenoxy)-4-hydroxy-isoquinoline-3-carbonyl]-amino}-pentanoic acid], the IC50 was found to be 10.5 µM in test [1] (setting [3]) and 112 µM in test [2] (setting [4]). The PHD2/PHD1 in test [1] stood at 11.

With `O=C(O)CCNC(=O)c1ncc2ccc(Oc3ccccc3)cc2c1O` [Compound 112, 3-[(4-Hydroxy-6-phenoxy-isoquinoline-3-carbonyl)-amino]-propionic acid], the IC50 came to 23.7 µM in test [1] (setting [3]) and 200 µM in test [2] (setting [4]). The PHD2/PHD1 in test [1] is on record as 8.

`O=C(O)CCCNC(=O)c1ncc2ccc(Oc3ccccc3)cc2c1O` [Compound 113, 4-[(4-Hydroxy-6-phenoxy-isoquinoline-3-carbonyl)-amino]-butyric acid]: the results for the IC50 in test [1] (setting [3]) and in test [2] (setting [4]) were 21.2 µM and 200 µM, respectively. In test [1], the PHD2/PHD1 turned out to be 9.

Regarding `O=C(O)CCCCNC(=O)c1ncc2cc(Sc3ccccc3)ccc2c1O` [Compound 114, 5-[(4-Hydroxy-7-phenylsulfanyl-isoquinoline-3-carbonyl)-amino]-pentanoic acid], the IC50 in test [1] (setting [3]) was found to be 13.5 µM; in test [2] (setting [4]) it was 86.6 µM. In addition, the PHD2/PHD1 in test [1] stood at 6.

With `O=C(O)CCCNC(=O)c1ncc2cc(Sc3ccccc3)ccc2c1O` [Compound 115, 4-[(4-Hydroxy-7-phenylsulfanyl-isoquinoline-3-carbonyl)-amino]-butyric acid], the IC50 in test [1] (setting [3]) was 1.41 µM; in test [2] (setting [4]), 14.8 µM. Moreover, the PHD2/PHD1 in test [1] was determined as 11.

`O=C(O)CCNC(=O)c1ncc2cc(NC(=O)Nc3ccccc3)ccc2c1O` [Compound 116, 3-{[4-Hydroxy-7-(3-phenyl-ureido)-isoquinoline-3-carbonyl]-amino}-propionic acid]: the IC50 came out at 3.34 µM in test [1] (setting [3]) and 29.2 µM in test [2] (setting [4]). In addition, in test [1], the PHD2/PHD1 was 9.

Turning to `O=C(Nc1ccccc1)Nc1ccc2c(O)c(C(=O)NC[C@H](O)C(=O)O)ncc2c1` [Compound 117, (S)-2-Hydroxy-3-{[4-hydroxy-7-(3-phenyl-ureido)-isoquinoline-3-carbonyl]-amino}-propionic acid], the values for the IC50 in test [1] (setting [3]) and in test [2] (setting [4]) were 4.66 µM and 51.4 µM, respectively. Besides, the PHD2/PHD1 in test [1] turned out to be 11.

As for `O=C(O)CCNC(=O)c1ncc2cc(NC(=O)c3ccc(F)cc3)ccc2c1O` [Compound 118, 3-{[7-(4-Fluoro-benzoylamino)-4-hydroxy-isoquinoline-3-carbonyl]-amino}-propionic acid], the values for the IC50 in test [1] (setting [3]) and in test [2] (setting [4]) were 6.45 µM and 113 µM, respectively. For the same molecule, in test [1], the PHD2/PHD1 was 18.

`O=C(O)CCCNC(=O)c1ncc2cc(NC(=O)Nc3ccccc3)ccc2c1O` [Compound 119, 4-{[4-Hydroxy-7-(3-phenyl-ureido)-isoquinoline-3-carbonyl]-amino}-butyric acid]: the IC50 in test [1] (setting [3]) is 12.6 µM; in test [2] (setting [4]) it was 72.3 µM. In addition, the PHD2/PHD1 in test [1] was 6.

For the molecule `O=C(O)CCCNC(=O)c1ncc2cc(NC(=O)c3ccc(F)cc3)ccc2c1O` [Compound 120, 4-{[7-(4-Fluoro-benzoylamino)-4-hydroxy-isoquinoline-3-carbonyl]-amino}-butyric acid], the values for the IC50 in test [1] (setting [3]) and in test [2] (setting [4]) were 12.4 µM and 200 µM, respectively. The PHD2/PHD1 in test [1] was found to be 16.

Consider `CC(C)(CNC(=O)c1nc(C#N)c2cc(Sc3ccccc3)ccc2c1O)C(=O)O` [Compound 121, 3-[(1-Cyano-4-hydroxy-7-phenylsulfanyl-isoquinoline-3-carbonyl)-amino]-2,2-dimethyl-propionic acid], for which the IC50 in test [1] (setting [3]) came to 0.84 µM; in test [2] (setting [4]) it was 8.18 µM. Besides, the PHD2/PHD1 in test [1] is given as 10.

For `CC(C)(CNC(=O)c1nc(C#N)c2cc(CCc3ccccc3)ccc2c1O)C(=O)O` [Compound 122, 3-[(1-Cyano-4-hydroxy-7-phenethyl-isoquinoline-3-carbonyl)-amino]-2,2-dimethyl-propionic acid], the IC50 turned out to be 2.57 µM in test [1] (setting [3]) and 29.3 µM in test [2] (setting [4]). In addition, in test [1], the PHD2/PHD1 is recorded as 11.

With `CC(C)(CNC(=O)c1nc(C#N)c2ccc(Oc3ccccc3)cc2c1O)C(=O)O` [Compound 123, 3-[(1-Cyano-4-hydroxy-6-phenoxy-isoquinoline-3-carbonyl)-amino]-2,2-dimethyl-propionic acid], the IC50 is 6.11 µM in test [1] (setting [3]) and 183 µM in test [2] (setting [4]). Moreover, in test [1], the PHD2/PHD1 amounted to 30.
